Assay results: US20250057963A1, “DISCOVERY OF PIPERLONGUMINE AS A NOVEL E3 LIGASE LIGAND” (University of Florida Research Foundation, Incorporated, priority 2021, published 2025)
Entries after “also recorded” stand apart in the source; their conditions may differ.

What was measured:
[1] = test system: LNCaP, 22RV1, PC3 and DU145 prostate cancer cell lines; assay: Viability (MTS) assay in prostate cancer cell lines; format: cell-based, Human; details: all four cell lines LNCaP, 22RV1, PC3, DU145; MTS, 72 h treatment
Experimental: All the cell lines were maintained in a humidified incubator at 37° C. and 5% CO2. […] The data were expressed as average % cell viability and fitted in non-linear regression curves using GraphPad Prism 9 (GraphPad Software, La Jolla, CA, USA).

CDK10 = target: T1, CDK10 (Homo sapiens, UniProt Q15131); assay: CDK10 degradation in MOLT4 cells (TMT proteomics, immunoblot); format: cell-based
T1 construct: endogenous in cells; host or cells: MOLT4
Experimental: (§1) Cells were collected and lysed in RIPA lysis buffer (Cat. #BP-115DG, Boston Bio Products, Ashland, MA, USA) supplemented with protease and phosphatase inhibitor cocktails (Cat. #PPC1010, Sigma-Aldrich, St. Louis, MO, USA). Protein samples were made and immunoblotting was performed as described previously (Khan et al., 2019; Lv et al., 2021). Antibodies purchased from Cell Signaling Technologies (CST) and the dilutions are as follows: Biotin (Cat. No. 5571S, 1:1000), PARP (Cat. No. 9542S, 1:1000), c-Myc (Cat. No. 5605S, 1:1000), MCL1 (Cat. No. 5453S, 1:1000), and ALK (Cat. No. 3791S, 1:1000). KEAP1 antibody was purchased from Proteintech (Cat. No. 10503-2-AP, 1:1000). CDK9 antibody was purchased from Santa Cruz (Cat. No. sc-13130, 1:500). V5-tag antibody was purchased from Bethyl (Cat. No. A190-120P, 1:1000). j-actin antibody was purchased from MP Biomedicals (Cat. No. 8691001, 1:20 000).
Sample Preparation and LC-MS/MS analysis. […]
Data processing and analysis. Proteins were identified and MS3 reporter ions quantified using MaxQuant (version 2.0.3.0; Max Planck Institute) against the Homo sapiens UniprotKB database (March 2021) with a parent ion tolerance of 3 ppm, a fragment ion tolerance of 0.5 Da, and a reporter ion tolerance of 0.003 Da. […]

c-Myc and MCl-1 = assay: c-Myc and MCL-1 expression in MOLT4 cells (qPCR and immunoblot); format: cell-based, Human
Experimental: as §1
Total RNA was extracted as mentioned above. Reverse transcription and quantitative PCR (qPCR) was performed as described in our previous study (Lv et al., 2021). Primers used for measuring gene transcriptional level: GAPDH primers (forward 5′-[…]-3′ and reverse 5′-[…]-3′) were described previously (Zhang et al., 2018b). MCL1 primers are forward 5′-[…]-3′ and reverse 5′-[…]-3′; MYC primers are forward 5′-[…]-3′ and reverse 5′-[…]-3′.

T1 sequence (Q15131 whole entry): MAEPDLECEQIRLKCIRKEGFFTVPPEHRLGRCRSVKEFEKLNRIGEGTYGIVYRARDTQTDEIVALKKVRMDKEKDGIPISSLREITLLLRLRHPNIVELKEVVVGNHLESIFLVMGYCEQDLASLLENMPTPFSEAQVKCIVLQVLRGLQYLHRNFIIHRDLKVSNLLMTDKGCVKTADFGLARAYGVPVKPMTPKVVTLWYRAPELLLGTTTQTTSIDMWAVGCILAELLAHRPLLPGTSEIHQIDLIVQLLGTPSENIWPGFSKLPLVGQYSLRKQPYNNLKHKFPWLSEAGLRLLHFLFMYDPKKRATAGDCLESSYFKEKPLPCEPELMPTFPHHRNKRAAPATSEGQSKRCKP

COc1cc(/C=C/C(=O)N2CCC=CC2=O)cc(OC)c1OCCN1CCN(C(=O)CN2CCC(C(=O)Nc3ncc(SCc4ncc(C(C)(C)C)o4)s3)CC2)CC1 [compound 955, (E)-N-(5-(((5-(tert-butyl)oxazol-2-yl)methyl)thio)thiazol-2-yl)-1-(2-(4-(2-(2,6-dimethoxy-4-(3-oxo-3-(6-oxo-3,6-dihydropyridin-1(2H)-yl)prop-1-en-1-yl)phenoxy)ethyl)piperazin-1-yl)-2-oxoethyl)piperidine-4-carboxamide]
EC50, anti-proliferation [1]: single digital nM range | dependence of CDK10 degradation (MG132, MLN4924 pre-treatment) (CDK10): UPS—and CRL-dependent manner; also recorded: proteasome- and CRL-dependent manner | CDK10 degradation (CDK10; 0.1 μM 955, 1 μM SNS-032): significantly decreased CDK10; also recorded: potently degrade CDK10 | effectiveness relative to SNS-032 in downregulating c-Myc and MCl-1 (mRNA and protein) (c-Myc and MCl-1): ~10 times | potency relative to SNS-032 in downregulation of c-Myc and MCl-1 (mRNA and protein) (c-Myc and MCl-1): about 10 fold
